From patent US6737383B1, “Herbicidal oxadiazolidines” (priority 1999, dated 2004)

Legend:
[1] = system: winter barley; test: Test E winter barley; assay type: in vivo, Hordeum vulgare; details: Preemergence
[2] = system: winter wheat; test: Test E winter wheat; assay type: in vivo, Triticum aestivum; details: Postemergence
Method in brief: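 For postemergence, plants at the 1- to 4-leaf stage, in a 60:40 mix of sandy loam and potting mix, treated with compound formulated in a surfactant-containing non-phytotoxic solvent. Visual assessment versus untreated controls followed roughly 21–28 days in the greenhouse.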

[3] = system: Italian ryegrass; test: Test E Italian ryegrass; assay type: in vivo, Lolium multiflorum; details: Preemergence
[4] = system: giant foxtail; test: Test B pre/postemergence giant foxtail; assay type: in vivo, Setaria faberii
Method in brief: (§1)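 Herbicidal effect was estimated by eye on a ten-point control scale after plants spent twelve to sixteen days in a greenhouse following soil or foliar treatment. Foliar sprays targeted plants at one to four leaves; all doses were formulated in a non-phytotoxic solvent with surfactant.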

[5] = system: morningglory; test: Test B pre/postemergence morningglory; assay type: in vivo, Ipomoea hederacea
Method in brief: as §1

[6] = system: cocklebur; test: Test B pre/postemergence cocklebur; assay type: in vivo, Xanthium strumarium
Method in brief: as §1

[7] = system: blackgrass; test: Test E blackgrass; assay type: in vivo, Alopecurus myosuroides; details: Preemergence
[8] = system: wild oat; test: Test E wild oat; assay type: in vivo, Avena fatua; details: Preemergence
[9] = system: bamyardgrass; test: Test B flood test barnyardgrass; assay type: in vivo, Echinochloa crus-galli
Method in brief: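 Each value is a visual injury score relative to controls, with 10 meaning complete control and 0 no effect. Evaluation took place twelve to sixteen days after the 2-leaf-stage plants were treated and kept in the greenhouse.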

[10] = system: winter wheat; test: Test E winter wheat; assay type: in vivo, Triticum aestivum; details: Preemergence
[11] = system: green foxtail; test: Test E green foxtail; assay type: in vivo, Setaria viridis; details: Preemergence
[12] = Rate 125 g/ha, 0 to 100 scale (0 no effect, 100 complete control)
[13] = Rate 500 g/ha, 0 to 100 scale where 0 is no effect and 100 is complete control
[14] = Rate 250 g/ha, 0 to 100 scale (0 no effect, 100 complete control)
[15] = Rate 500 g/ha, 0 to 100 scale, 0 no effect, 100 complete control
[16] = Postemergence, Rate 62 g/ha, scale 0 to 10, 0 is no effect, 10 is complete control
[17] = Postemergence, Rate 125 g/ha, scale of 0 to 10 where 0 is no effect and 10 is complete control
[18] = Postemergence, Rate 250 g/ha, scale 0 to 10, 0 no effect, 10 complete control
[19] = Preemergence, Rate 31 g/ha, visual rating, scale 0 to 10 (0 no effect, 10 complete control)
[20] = Preemergence, Rate 62 g/ha, scale 0 to 10 (0 no effect, 10 complete control)
[21] = Preemergence, Rate 125 g/ha, scale 0 to 10 (0 no effect, 10 complete control)
[22] = Preemergence, Rate 250 g/ha, scale of 0 to 10 where 0 is no effect and 10 is complete control
[23] = Rate 31 g/ha, Postemergence, scale 0 to 10
[24] = Rate 125 g/ha, Postemergence section (flood test species), scale 0 to 10, 0 no effect, 10 complete control
[25] = flood test, listed under Postemergence, Rate 250 g/ha, scale 0 to 10, 0 no effect, 10 complete control
[26] = Rate 62 g/ha, 0 to 100 scale, 0 no effect, 100 complete control
[27] = Preemergence, Rate 500 g/ha, scale 0 to 10 (0 no effect, 10 complete control)
[28] = Rate 62 g/ha, Postemergence, scale of 0 to 10 where 0 is no effect and 10 is complete control
[29] = Rate 500 g/ha, Postemergence, scale 0 to 10, 0 no effect, 10 complete control
[30] = Rate 1000 g/ha, 0 to 100 scale where 0 is no effect and 100 is complete control
[31] = Preemergence, Rate 62 g/ha, scale of 0 to 10 where 0 is no effect and 10 is complete control
[32] = Preemergence, Rate 125 g/ha, 0 is no effect, 10 is complete control
[33] = Preemergence, Rate 250 g/ha, scale 0 to 10, 0 is no effect, 10 is complete control
[34] = Rate 250 g/ha, Postemergence, scale 0 to 10, 0 is no effect, 10 is complete control
[35] = Rate 500 g/ha, Postemergence, scale 0 to 10

## CC(C)N(C(=O)n1oc(=O)n(-c2cnn(C)c2)c1=O)c1ccc(F)cc1 [Compound 98]
[1]; [12]
  Plant response rating, Barley (winter): 20
[1]; Rate 250 g/ha, 0 to 100 scale
  Plant response rating, Barley (winter): 10
[1]; [13]
  Plant response rating, Barley (winter): 30
[2]; Rate 125 g/ha, 0 to 100 scale
  Plant response rating, Wheat (winter): 30
[2]; [14]
  Plant response rating, Wheat (winter): 50
[2]; [15]
  Plant response rating, Wheat (winter): 55
[3]; [12]
  Plant response rating, I. Ryegrass: 50
[3]; Rate 250 g/ha, 0 to 100 scale
  Plant response rating, I. Ryegrass: 50
[3]; [13]
  Plant response rating, I. Ryegrass: 60
[4]; [16]
  Giant foxtail plant response rating: 0
[4]; [17]
  Giant foxtail plant response rating: 0
[4]; [18]
  Giant foxtail plant response rating: 2
[4]; [19]
  Giant foxtail plant response rating: 4
[4]; [20]
  Giant foxtail plant response rating: 5
[4]; [21]
  Plant response rating, Giant foxtail: 8
[4]; [22]
  Plant response rating, Giant foxtail: 10
[4]; [23]
  Giant foxtail plant response rating: 0
[5]; [16]
  Morningglory plant response rating: 0
[5]; [17]
  Morningglory plant response rating: 0
[5]; [18]
  Morningglory plant response rating: 2
[5]; [19]
  Morningglory plant response rating: 0
[5]; [20]
  Morningglory plant response rating: 0
[5]; [21]
  Plant response rating, Morningglory: 0
[5]; [22]
  Plant response rating, Morningglory: 0
[5]; [23]
  Morningglory plant response rating: 0
[6]; [16]
  Cocklebur plant response rating: 0
[6]; [17]
  Cocklebur plant response rating: 0
[6]; [18]
  Cocklebur plant response rating: 0
[6]; [19]
  Cocklebur plant response rating: 0
[6]; [20]
  Cocklebur plant response rating: 0
[6]; [21]
  Plant response rating, Cocklebur: 0
[6]; [22]
  Plant response rating, Cocklebur: 0
[6]; [23]
  Cocklebur plant response rating: 0
[7]; [12]
  Plant response rating, Blackgrass: 30
[7]; Rate 250 g/ha, 0 to 100 scale
  Plant response rating, Blackgrass: 20
[7]; [13]
  Plant response rating, Blackgrass: 55
[8]; [12]
  Plant response rating, Wild oat: 50
[8]; [13]
  Plant response rating, Wild oat: 50
[9]; [16]
  Barnyardgrass plant response rating: 5
[9]; Rate 31 g/ha, Postemergence section (flood test species), scale 0 to 10
  Barnyardgrass plant response rating: 3
[9]; [24]
  Barnyardgrass plant response rating: 9
[9]; [25]
  Barnyardgrass plant response rating: 9
[10]; [12]
  Plant response rating, Wheat (winter): 30
[10]; Rate 250 g/ha, 0 to 100 scale
  Plant response rating, Wheat (winter): 40
[10]; [13]
  Plant response rating, Wheat (winter): 40
[11]; [12]
  Plant response rating, Green foxtail: 60
[11]; Rate 250 g/ha, 0 to 100 scale
  Plant response rating, Green foxtail: 60
[11]; [13]
  Plant response rating, Green foxtail: 65

## CCn1c(=O)on(C(=O)N(c2ccc(F)cc2F)C(C)C)c1=O [Compound 116]
[1]; [26]
  Plant response rating, Barley (winter): 10
[1]; [12]
  Plant response rating, Barley (winter): 30
[1]; Rate 250 g/ha, 0 to 100 scale
  Plant response rating, Barley (winter): 70
[1]; [13]
  Plant response rating, Barley (winter): 80
[2]; Rate 62 g/ha, 0 to 100 scale
  Plant response rating, Wheat (winter): 20
[2]; Rate 125 g/ha, 0 to 100 scale
  Plant response rating, Wheat (winter): 10
[2]; [14]
  Plant response rating, Wheat (winter): 45
[2]; [15]
  Plant response rating, Wheat (winter): 10
[3]; [26]
  Plant response rating, I. Ryegrass: 50
[3]; [12]
  Plant response rating, I. Ryegrass: 30
[3]; Rate 250 g/ha, 0 to 100 scale
  Plant response rating, I. Ryegrass: 60
[3]; [13]
  Plant response rating, I. Ryegrass: 100
[4]; [17]
  Giant foxtail plant response rating: 9
[4]; [18]
  Giant foxtail plant response rating: 9
[4]; [20]
  Giant foxtail plant response rating: 10
[4]; [21]
  Plant response rating, Giant foxtail: 10
[4]; [22]
  Plant response rating, Giant foxtail: 10
[4]; [27]
  Giant foxtail plant response rating: 10
[4]; [28]
  Giant foxtail plant response rating: 9
[4]; [29]
  Giant foxtail plant response rating: 9
[5]; [17]
  Morningglory plant response rating: 4
[5]; [18]
  Morningglory plant response rating: 4
[5]; [20]
  Morningglory plant response rating: 0
[5]; [21]
  Plant response rating, Morningglory: 0
[5]; [22]
  Plant response rating, Morningglory: 4
[5]; [27]
  Morningglory plant response rating: 8
[5]; [28]
  Morningglory plant response rating: 2
[5]; [29]
  Morningglory plant response rating: 7
[6]; [17]
  Cocklebur plant response rating: 0
[6]; [18]
  Cocklebur plant response rating: 3
[6]; [20]
  Cocklebur plant response rating: 0
[6]; [21]
  Plant response rating, Cocklebur: 0
[6]; [22]
  Plant response rating, Cocklebur: 0
[6]; [27]
  Cocklebur plant response rating: 5
[6]; [28]
  Cocklebur plant response rating: 0
[6]; [29]
  Cocklebur plant response rating: 5
[7]; [26]
  Plant response rating, Blackgrass: 40
[7]; [12]
  Plant response rating, Blackgrass: 50
[7]; Rate 250 g/ha, 0 to 100 scale
  Plant response rating, Blackgrass: 45
[7]; [13]
  Plant response rating, Blackgrass: 100
[8]; [26]
  Plant response rating, Wild oat: 20
[8]; [12]
  Plant response rating, Wild oat: 30
[8]; [13]
  Plant response rating, Wild oat: 80
[9]; [16]
  Barnyardgrass plant response rating: 0
[9]; [24]
  Barnyardgrass plant response rating: 0
[9]; Rate 250 g/ha, headed Pre-emergence (flood test species), scale 0 to 10 (0 no effect, 10 complete control)
  Barnyardgrass plant response rating: 0
[9]; Rate 500 g/ha, headed Pre-emergence (flood test species), scale 0 to 10 (0 no effect, 10 complete control)
  Plant response rating, Barnyardgrass: 0
[9]; Rate 500 g/ha, listed under Postemergence (flood test species), scale 0 to 10, 0 no effect, 10 complete control
  Barnyardgrass plant response rating: 4
[9]; Rate 1000 g/ha, Pre-emergence (as headed), scale 0 to 10
  Barnyardgrass plant response rating: 0
[9]; Rate 2000 g/ha, Pre-emergence (as headed), scale 0 to 10, 0 no effect, 10 complete control
  Barnyardgrass plant response rating: 9
[9]; [25]
  Barnyardgrass plant response rating: 0
[10]; [26]
  Plant response rating, Wheat (winter): 30
[10]; [12]
  Plant response rating, Wheat (winter): 55
[10]; Rate 250 g/ha, 0 to 100 scale
  Plant response rating, Wheat (winter): 30
[10]; [13]
  Plant response rating, Wheat (winter): 100
[11]; [26]
  Plant response rating, Green foxtail: 65
[11]; [12]
  Plant response rating, Green foxtail: 50
[11]; Rate 250 g/ha, 0 to 100 scale
  Plant response rating, Green foxtail: 100

## CC1CCCCC1n1c(=O)on(C(=O)N(c2ccc(F)cc2)C(C)C)c1=O (stereo not shown) [Compound 161]
[1]; Rate 250 g/ha
  Barley (winter) plant response rating (0 to 100 scale): 30
[1]; [13]
  Plant response rating, Barley (winter): 40
[1]; [30]
  Plant response rating, Barley (winter): 40
[2]; Rate 1000 g/ha, 0 to 100 scale, 0 is no effect and 100 is complete control
  Plant response rating, Wheat (winter): 50
[2]; [15]
  Plant response rating, Wheat (winter): 35
[2]; Rate 250 g/ha, 0 to 100 scale where 0 is no effect and 100 is complete control
  Wheat (winter) plant response rating: 30
[3]; Rate 250 g/ha
  I. Ryegrass plant response rating (0 to 100 scale): 60
[3]; [13]
  Plant response rating, I. Ryegrass: 65
[3]; [30]
  Plant response rating, I. Ryegrass: 85
[4]; [17]
  Giant foxtail plant response rating: 0
[4]; [31]
  Giant foxtail plant response rating: 4
[4]; [32]
  Giant foxtail plant response rating (0 to 10 scale): 9
[4]; [33]
  Giant foxtail plant response rating: 9
[4]; [27]
  Giant foxtail plant response rating: 10
[4]; [28]
  Giant foxtail plant response rating: 0
[4]; [34]
  Plant response rating, Giant foxtail: 3
[4]; [35]
  Giant foxtail plant response rating: 7
[5]; [17]
  Morningglory plant response rating: 5
[5]; [31]
  Morningglory plant response rating: 0
[5]; [32]
  Morningglory plant response rating (0 to 10 scale): 0
[5]; [33]
  Morningglory plant response rating: 0
[5]; [27]
  Morningglory plant response rating: 0
[5]; [28]
  Morningglory plant response rating: 4
[5]; [34]
  Plant response rating, Morningglory: 7
[5]; [35]
  Morningglory plant response rating: 10
[6]; [17]
  Cocklebur plant response rating: 0
[6]; [31]
  Cocklebur plant response rating: 0
[6]; [32]
  Cocklebur plant response rating (0 to 10 scale): 0
[6]; [33]
  Cocklebur plant response rating: 0
[6]; [27]
  Cocklebur plant response rating: 0
[6]; [28]
  Cocklebur plant response rating: 0
[6]; [34]
  Plant response rating, Cocklebur: 0
[6]; [35]
  Cocklebur plant response rating: 3
[7]; Rate 250 g/ha
  Blackgrass plant response rating (0 to 100 scale): 30
[7]; [13]
  Plant response rating, Blackgrass: 50
[7]; [30]
  Plant response rating, Blackgrass: 55
[8]; Rate 250 g/ha
  Wild oat plant response rating (0 to 100 scale): 50
[8]; [13]
  Plant response rating, Wild oat: 50
[8]; [30]
  Plant response rating, Wild oat: 60
[10]; Rate 250 g/ha
  Wheat (winter) plant response rating (0 to 100 scale): 10
[10]; [13]
  Plant response rating, Wheat (winter): 20
[10]; [30]
  Plant response rating, Wheat (winter): 45
[11]; Rate 250 g/ha
  Green foxtail plant response rating (0 to 100 scale): 60
[11]; [13]
  Plant response rating, Green foxtail: 70
[11]; [30]
  Plant response rating, Green foxtail: 90
